This note sets out measurements from US20160008493A1, “RADIOACTIVE SUBSTRATES FOR ALDEHYDE DEHYDROGENASE” (THE JOHNS HOPKINS UNIVERSITY, priority 2013, published 2016).

For test [1], the system named is ALDH. Description: In vitro radio uptake assay for ALDH activity, K562 cells. As to conditions: 1 μCi, 37° C., 30 mins, radioactivity (CPM) by gamma counter, FIG. 1. It is filed as cell-based, human. The text has this: (§1) The K562 human chronic myelogenous leukemia cell line was purchased from American Type Culture Collection (CLL-243™) and maintained in suspension in IMDM media supplemented with 10% FBS. The murine leukemia cell line L1210 (ALDH^low) and L1210/cpa (ALDH^hi) were provided by Dr. Richard J. Jones (Johns Hopkins University) and maintained in suspension in RPMI 1640 supplemented with 10% FBS. Human glioma cell line, U87-tri was provided by Dr. John Laterra (Kennedy Krieger Institute) and maintained in DMEM media supplemented with 10% FBS. All cells were grown at 37° C. in a humidified incubator with 5% CO2.
(§2) ^125IBz-A-DA was dissolved in 100% DMSO at 10 mCi/50 μL concentration and stored at −20° C. as stock solutions. 25 μL of a stock was deprotected by mixing with the same volume of 2N HCl for 30 mins at room temperature and the resulting aldehyde (IBz-A) were neutralized by adding 350 μL of the assay buffer (PBS supplemented with 1% FBS and 50 μM Verapamil, Sigma V4629) and immediately used.
(§3) One million cells were resuspended in the assay buffer and 1 μCi of IBz-A (with or without 1000 fold cold competitor) was added to the cell. […] Cells were resuspended in the cold assay buffer ([…]) and stored in the ice until analyzed. Cells were washed twice with cold assay buffer and the radioactivity was measured by LKB Wallac gamma counter (1282 compugamma CS).

Test [2] addresses T1, ALDH (Mus musculus, UniProt P24549).
T1 construct: was tested for specific uptake by ALDH-expressing cell lines (K562 and L1210/cpa); endogenous in cells; host or cells: L1210/cpa
T1 sequence (P24549 1-501): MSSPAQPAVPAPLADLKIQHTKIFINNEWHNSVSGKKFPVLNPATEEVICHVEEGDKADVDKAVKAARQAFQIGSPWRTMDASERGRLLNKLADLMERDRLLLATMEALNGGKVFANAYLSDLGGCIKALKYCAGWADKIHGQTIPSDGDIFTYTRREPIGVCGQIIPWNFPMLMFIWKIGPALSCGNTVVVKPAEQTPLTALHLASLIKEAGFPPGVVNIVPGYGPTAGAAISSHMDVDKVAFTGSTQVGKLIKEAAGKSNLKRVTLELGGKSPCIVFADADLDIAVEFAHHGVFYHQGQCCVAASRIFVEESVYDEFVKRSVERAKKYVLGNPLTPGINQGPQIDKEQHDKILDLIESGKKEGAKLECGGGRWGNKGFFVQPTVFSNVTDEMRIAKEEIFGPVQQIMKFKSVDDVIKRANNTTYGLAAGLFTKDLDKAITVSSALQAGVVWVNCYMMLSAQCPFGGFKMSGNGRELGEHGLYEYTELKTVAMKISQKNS
Kind of test: In vitro radio uptake assay for ALDH activity, L1210/cpa cells. It is filed as cell-based, murine. The conditions noted are these: L1210/cpa (ALDH^hi) cells; 1 μCi, 37° C., 30 mins; radioactivity (CPM) by gamma counter; FIG. 1.
Excerpt: as §1, §2, §3

Take `O=CCNC(=O)c1ccc([125I])cc1` [^125IBz-A]: the “increase of uptake compared with cells treated with DEAB (ALDH inhibitor)” value with ALDH [1] and on ALDH [2] was “more than 5 fold” each time.
